One experiment concerns the target T1, human TNFR2 ECD protein (Homo sapiens, UniProt P20333).
T1 construct: HRV 3C protease cleavage site (C); 6His (C, cleaved yes); made in house; host or cells: Sf21 insect cells (baculovirus), secreted
T1 sequence (P20333 23-257): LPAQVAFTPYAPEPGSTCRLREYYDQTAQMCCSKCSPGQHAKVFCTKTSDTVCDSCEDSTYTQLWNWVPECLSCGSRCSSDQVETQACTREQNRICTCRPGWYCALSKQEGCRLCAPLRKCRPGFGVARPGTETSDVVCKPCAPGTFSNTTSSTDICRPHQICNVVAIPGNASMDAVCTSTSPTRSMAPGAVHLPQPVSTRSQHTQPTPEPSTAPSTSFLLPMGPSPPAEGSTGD
As to the kind of experiment: SPR off-target binding (selectivity) to human TNFR2 ECD. The method, boiled down: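 Read-out: kon, koff and derived affinity from SPR response units. Human TNFR1 and TNFR2 ECD, Avi-tag biotinylated with BirA, captured on a streptavidin surface; peptides injected under laminar flow in HEPES-saline with EDTA, P20 and 2% DMSO.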

Experiment [1] has as its target T2, human soluble TNFR1 (sTNFR1) (Homo sapiens, UniProt P19438).
T2 construct: made in house; host or cells: Sf21 (baculovirus)
T2 sequence (P19438 with tags, fused parts or gaps): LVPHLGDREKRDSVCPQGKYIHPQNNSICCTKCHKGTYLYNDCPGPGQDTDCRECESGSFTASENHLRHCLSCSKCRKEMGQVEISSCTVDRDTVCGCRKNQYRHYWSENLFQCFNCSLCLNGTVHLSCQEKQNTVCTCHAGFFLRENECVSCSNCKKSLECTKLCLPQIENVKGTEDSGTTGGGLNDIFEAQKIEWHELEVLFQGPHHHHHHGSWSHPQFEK
As to the kind of experiment: Human sTNFR1-peptide displacement assay (LanthaScreen Eu TR-FRET binding assay). A digest of the protocol:
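Readout is the 665/615 nm TR-FRET ratio (Eu anti-His donor, streptavidin-Alexa647 acceptor), normalized to DMSO and saturating displacer, fit by Morrison-based five-parameter logistic for Kd^app. His-tagged sTNFR1 (1-211) prebound to 100 nM biotinylated peptide SEQ ID NO.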
(In TR-FRET formats the signal depends on donor and acceptor labels being close together.)

The structures appear in SMILES notation. pIC50, pKd: −log10 of the molar value. Numbered stars: 1 amine (or outer) side, 2 acyl side, 3 side chain; on linkers, the order of the positions; unused ones are H or OH. Bridge positions count the residues as written; N and C are the ends. Square brackets hold non-standard residues; d marks the D form. Peptide text beside a SMILES is read from it. * marks the point of attachment. Trp(βS-Me,7-OMe) = COc1cccc2c([C@H](C)[C@H](N)C(=O)O)c[nH]c12; Trp(7-Cl) = N[C@@H](Cc1c[nH]c2c(Cl)cccc12)C(=O)O; Phe(4-COOH) = N[C@@H](Cc1ccc(C(=O)O)cc1)C(=O)O; Trp(7-aza) = N[C@@H](Cc1c[nH]c2ncccc12)C(=O)O; Phe(4-CH2NH2) = NCc1ccc(C[C@H](N)C(=O)O)cc1; αMeW = C[C@](N)(Cc1c[nH]c2ccccc12)C(=O)O; X1 = O=C([C@@H]1CC[C@H](N[*:1])C1)[*:2]; X6 = O=C([C@@H](N[*:1])C1(O)CC1)[*:2]; Pip(4-aza) = O=C(O)[C@@H]1CNCCN1; 4Pal = N[C@@H](Cc1ccncc1)C(=O)O; NMeE = CN[C@@H](CCC(=O)O)C(=O)O; αMeS = C[C@](N)(CO)C(=O)O; Carboxymethyl = O=C(O)C*; Nle = CCCC[C@H](N)C(=O)O; Sar = CNCC(=O)O

As a reminder, the pKd is the Kd on a negative log10 scale, so that one unit is a factor of ten. Read a high pKd as a small Kd. Usually pIC50 stands for the IC50 on a negative log10 scale, so that one unit is a factor of ten. Higher therefore signals a small IC50.

For the compound `CCCC[C@@H]1NC(=O)CSC[C@@H](C(N)=O)NC(=O)[C@](C)(Cc2c[nH]c3ccccc23)NC(=O)CN(C)C(=O)[C@H](Cc2ccc(O)cc2)NC(=O)[C@H](Cc2ccc(C(=O)O)cc2)NC(=O)[C@](C)(CO)NC(=O)[C@H](Cc2c[nH]c3c(Cl)cccc23)NC(=O)[C@H](Cc2ccncc2)NC(=O)[C@H](CC(N)=O)NC(=O)[C@H](CCC(=O)O)N(C)C(=O)[C@H](Cc2c[nH]c3ncccc23)NC(=O)[C@H](C2(O)CC2)NC(=O)[C@H](Cc2ccncc2)NC1=O` [SEQ ID NO. 281] ({CH2CO}-[Nle][4Pal][X6][Trp(7-aza)][NMeE]N[4Pal][Trp(7-Cl)][αMeS][Phe(4-COOH)]Y[Sar][αMeW]C-NH2; thioether N-14), the pKd at human TNFR2 ECD protein was less than 6.00. Moreover, the negative-log IC50 (pIC50) in experiment [1] was 8.85.
On the same counts, the results for `CCCC[C@@H]1NC(=O)CSC[C@@H](C(N)=O)NC(=O)[C@](C)(Cc2c[nH]c3ccccc23)NC(=O)CN(C)C(=O)[C@H](Cc2ccc(O)cc2)NC(=O)[C@H](Cc2ccc(OCC(=O)O)cc2)NC(=O)[C@](C)(CO)NC(=O)[C@H](Cc2c[nH]c3c(Cl)cccc23)NC(=O)[C@H](Cc2ccncc2)NC(=O)[C@H](CC(N)=O)NC(=O)[C@H](CCC(=O)O)N(C)C(=O)[C@H](Cc2c[nH]c3ncccc23)NC(=O)[C@H](CO)NC(=O)[C@H](Cc2ccc(CN)cc2)NC1=O` [SEQ ID NO. 283] ({CH2CO}-[Nle][Phe(4-CH2NH2)]S[Trp(7-aza)][NMeE]N[4Pal][Trp(7-Cl)][αMeS]Y(Carboxymethyl)Y[Sar][αMeW]C-NH2; thioether N-14) are less than 6.00 and 8.84.
In the case of `CCCC[C@@H]1NC(=O)[C@@H]2CC[C@@H](C2)NC(=O)[C@H]([C@@H](C)c2c[nH]c3c(OC)cccc23)NC(=O)CN(C)C(=O)[C@H](Cc2ccc(O)cc2)NC(=O)[C@H](Cc2ccc(C(=O)O)cc2)NC(=O)[C@](C)(CO)NC(=O)[C@H](Cc2c[nH]c3c(Cl)cccc23)NC(=O)[C@H](Cc2ccc(C(=O)O)cc2)NC(=O)[C@H](CC(N)=O)NC(=O)[C@H](CCC(=O)O)N(C)C(=O)[C@H](Cc2c[nH]c3ccccc23)NC(=O)[C@@H]2CNCCN2C(=O)[C@H](Cc2ccncc2)NC1=O` [SEQ ID NO. 288] (cyclo([4Pal][Pip(4-aza)]W[NMeE]N[Phe(4-COOH)][Trp(7-Cl)][αMeS][Phe(4-COOH)]Y[Sar][Trp(βS-Me,7-OMe)][X1][Nle])), the results for the pKd (on human TNFR2 ECD protein; in experiment [1]) were less than 6.00 and 9.96, respectively. Further, the negative-log IC50 (pIC50) in experiment [1] was 9.70.
Compound `CN1CC(=O)N[C@@H](CC(N)=O)C(=O)N[C@@H](Cc2ccc(O)cc2)C(=O)N[C@@H](Cc2c[nH]c3ccccc23)C(=O)N[C@@H](CO)C(=O)N[C@@H](Cc2ccc(O)cc2)C(=O)N[C@@H](Cc2ccc(O)cc2)C(=O)N(C)CC(=O)N[C@@H](Cc2c[nH]c3ccccc23)C(=O)N[C@H](C(=O)NCC(=O)N[C@@H](CCC(=O)O)C(=O)N[C@@H](CCC(=O)O)C(N)=O)CSCC(=O)N[C@@H](Cc2ccccc2)C(=O)N[C@@H](Cc2ccc(O)cc2)C(=O)N[C@@H](CO)C(=O)N[C@@H](Cc2c[nH]c3ccccc23)C1=O` [SEQ ID NO. 289] ({CH2CO}-FYSW[Sar]NYWSYY[Sar]WCGEE-NH2; thioether N-14) had a pKd at human TNFR2 ECD protein of less than 6.00. The same compound showed a pIC50 in experiment [1] of 8.01.

Source of the values: patent US20240287138A1, “CYCLIC PEPTIDES FOR INHIBITING TNF RECEPTOR 1 ACTIVITY” (Merck Sharp & Dohme LLC, priority 2023, published 2024).
